Common to all, as to experiment: ≥ marks a high value that may be exact or a test limit, other limits are often not marked, values filed in µg/mL are converted to µM
Assay [1] concerns Acinetobacter baumannii.
Assay [2] relates to Bacillus subtilis ATCC 23857.
Assay [3] deals with Escherichia coli 780.
Assay [4] has as its system Escherichia coli ATCC 25922.
The subject of assay [5] is Enterococcus faecalis ATCC 29212.
The test system of assay [6] is Pseudomonas aeruginosa ATCC 27853.
Assay [7] relates to Escherichia coli 850.
The test system of assay [8] is Staphylococcus aureus 725.
The test system of assay [9] is Pseudomonas aeruginosa 2760.
Assay [10] concerns Staphylococcus aureus ATCC 25923.
Assay [11] concerns Klebsiella pneumoniae ATCC 700603.
The test system of assay [12] is Staphylococcus aureus 936.
Assay [13] relates to Acinetobacter baumannii ATCC 19606.
The subject of assay [14] is Enterobacter cloacae CGMCC 1.57.
Assay [15] relates to Psychrobacter faecalis X29.
Assay [16] deals with Klebsiella pneumoniae 08040724.
In assay [17] the test system is Nocardia asteroides 201118.
In assay [18] the test system is Enterococcus faecium 091299.
Assay [19] has as its system Enterococcus faecalis 981.
Assay [20] has as its system Candida glabrata 090902.
In assay [21] the test system is Candida albicans ATCC 10231.
Assay [22] relates to Escherichia coli K12 MG1655.
For assay [23], the system named is Staphylococcus aureus 68 HER 1049.

≈ marks a conversion by molar mass, not a printed value. Where only a bound is given, the exact number is not on record here.

Take `CC[C@H](C)[C@H](NC(=O)[C@H](CCCCN)NC(=O)[C@H](CCCCN)NC(=O)[C@H](C)NC(=O)[C@H](CC(C)C)NC(=O)[C@H](C)NC(=O)[C@H](C)NC(=O)[C@H](CC(C)C)NC(=O)[C@@H]1CCCN1C(=O)[C@H](CCCCN)NC(=O)[C@H](CC(C)C)NC(=O)[C@H](CC(N)=O)NC(=O)[C@@H](NC(=O)[C@H](CCCCN)NC(=O)CNC(=O)[C@H](CC(C)C)NC(=O)[C@H](CC(C)C)NC(=O)[C@H](Cc1ccc(O)cc1)NC(=O)CNC(=O)[C@H](C)N)[C@@H](C)CC)C(=O)N[C@@H](CC(C)C)C(N)=O` [AGYLLGKINLKPLAALAKKIL]: the MIC – broadly, the lowest concentration that inhibits growth of the organism – in assay [1] was 3.62 µM (≈ 8 µg/mL); in assay [2] it was 3.62 µM (≈ 8 µg/mL); in [3] it was 14.5 µM (≈ 32 µg/mL); in assay [4], 7.24 µM (≈ 16 µg/mL); in assay [5], greater than 58 µM; in [6], 58 µM (≈ 128 µg/mL). Also, the MIC was 7.24 µM (≈ 16 µg/mL) in assay [7]; 29 µM (≈ 64 µg/mL) in assay [8]; 29 µM (≈ 64 µg/mL) in assay [9]; 58 µM (≈ 128 µg/mL) in assay [10]; 29 µM (≈ 64 µg/mL) in assay [11]; no less than 58 µM in assay [12]. This compound also registered an MIC in assay [13] of 3.62 µM (≈ 8 µg/mL).

Consider `CC[C@H](C)[C@H](NC(=O)CNC(=O)[C@@H](NC(=O)[C@H](C)NC(=O)[C@H](C)NC(=O)[C@H](CCCCN)NC(=O)[C@@H](NC(=O)[C@H](CC(C)C)NC(=O)CNC(=O)[C@@H]1CCCN1C(=O)[C@H](CC(C)C)NC(=O)[C@@H](N)Cc1ccccc1)[C@@H](C)CC)C(C)C)C(=O)NCC(=O)N[C@@H](CO)C(=O)N[C@H](C(=O)N[C@H](C(=O)N[C@@H](Cc1ccccc1)C(=O)N[C@H]1CSSC[C@@H](C(=O)O)NC(=O)[C@H](CCCCN)NC(=O)[C@H](CCCN=C(N)N)NC(=O)[C@H](CO)NC(=O)[C@H]([C@@H](C)CC)NC(=O)[C@H](CCCCN)NC1=O)[C@@H](C)CC)[C@@H](C)O` [FLPGLIKAAVGIGSTIFCKISRKC], for which the minimal inhibitory concentration (MIC) is no less than 100 µM in [14]; 25 µM (≈ 63 µg/mL) in assay [15]; no less than 100 µM in assay [16]; 3.1 µM (≈ 7.82 µg/mL) in assay [17]; 100 µM (≈ 252 µg/mL) in assay [4]; no less than 100 µM in assay [18]. Moreover, the MIC in assay [10] stood at 3.1 µM (≈ 7.82 µg/mL); in [19] it was 3.1 µM (≈ 7.82 µg/mL); in assay [20], 3.1 µM (≈ 7.82 µg/mL); in assay [21] it was 50 µM (≈ 126 µg/mL).

Regarding `CC(C)C[C@H](NC(=O)[C@H](CCCN=C(N)N)NC(=O)[C@H](CCCCN)NC(=O)[C@H](Cc1c[nH]c2ccccc12)NC(=O)[C@H](Cc1c[nH]c2ccccc12)NC(=O)[C@H](CCCCN)NC(=O)[C@H](Cc1c[nH]c2ccccc12)NC(=O)[C@@H](N)Cc1c[nH]c2ccccc12)C(=O)N[C@@H](CCCN=C(N)N)C(=O)N[C@@H](CCCN=C(N)N)C(=O)N[C@@H](CC(C)C)C(=O)N[C@@H](Cc1ccccc1)C(=O)N[C@@H](CC(C)C)C(=O)N[C@@H](CC(C)C)C(=O)N[C@H](C(=O)O)C(C)C` [WWKWWKRLRRLFLLV], the MIC in [22] and in assay [23] was 7.32 µM (≈ 16 µg/mL) each time.

Values taken from DBAASP.
